The record followed here is patent EP4667483A1, “HUMAN TRANSFERRIN RECEPTOR-BINDING PEPTIDE” (JCR Pharmaceuticals Co., Ltd., priority 2023, dated 2024).

Numbered stars: 1 amine (or outer) side, 2 acyl side, 3 side chain; on linkers, the order of the positions; unused ones are H or OH. Bridge positions count the residues as written; N and C are the ends. Square brackets hold non-standard residues; d marks the D form. Peptide text beside a SMILES is read from it. * marks the point of attachment. Ala(imidazo(1,2-a)pyr3yl) = N[C@@H](Cc1cnc2ccccn12)C(=O)O; Trp(1-CH2COOH) = N[C@@H](Cc1cn(CC(=O)O)c2ccccc12)C(=O)O; NMePhe(4-COOH) = CN[C@@H](Cc1ccc(C(=O)O)cc1)C(=O)O; X1 = O=C([C@H](Cc1cccc(C(=O)[*:3])c1)N[*:1])[*:2]; X2 = O=C([C@H](Cc1cn(CCO)c2ccccc12)N[*:1])[*:2]; Phe(3-COOH) = N[C@@H](Cc1cccc(C(=O)O)c1)C(=O)O; Tyr(2,6-F2) = N[C@@H](Cc1c(F)cc(O)cc1F)C(=O)O; NMePhe(3-Cl) = CN[C@@H](Cc1cccc(Cl)c1)C(=O)O; Trp(1-Me) = Cn1cc(C[C@H](N)C(=O)O)c2ccccc21; 3Pal(6-NH2) = Nc1ccc(C[C@H](N)C(=O)O)cn1; NMeW = CN[C@@H](Cc1c[nH]c2ccccc12)C(=O)O; Lys(N3) = [N-]=[N+]=NCCCC[C@H](N)C(=O)O; NMeY = CN[C@@H](Cc1ccc(O)cc1)C(=O)O; Nva(3-Et) = CCC(CC)[C@H](N)C(=O)O; NMeF = CN[C@@H](Cc1ccccc1)C(=O)O; 4Pal = N[C@@H](Cc1ccncc1)C(=O)O; PEG4 = NCCOCCOCCOCCOCCC(=O)O; Carboxymethyl = O=C(O)C*

Holding throughout (assay type): binding
Test [1] addresses T1, human transferrin receptor (hTfR) (Homo sapiens, UniProt P02786). In words: Evaluation of pH dependence (ratio of SPR koff or KD at pH 6.0 to pH 7.4). The note with it: ratio of koff at pH 6.0 to pH 7.4. On the procedure: The ratio of the calculated koff or KD values under pH 6.0 conditions to those under pH 7.4 conditions was calculated to check pH dependency.
The target in test [2] is T1, human transferrin receptor (hTfR). The experiment in a line: SPR measurement under pH 7.4 conditions (Biacore T200, CM3 chip, hTfR captured by His Tag antibody). The note with it: SPR, pH 7.4; Table 1-3-2-2; read-out: hTfR SPR pH7.4 KD.
Test [3] has the same target. In words: SPR measurement under pH 6.0 conditions (Biacore T200, NTA chip, immobilized hTfR). The note with it: SPR, pH 6.0; Table 1-3-2-2; read-out: hTfR SPR pH6.0 KD.

T1 sequence (P02786 whole entry): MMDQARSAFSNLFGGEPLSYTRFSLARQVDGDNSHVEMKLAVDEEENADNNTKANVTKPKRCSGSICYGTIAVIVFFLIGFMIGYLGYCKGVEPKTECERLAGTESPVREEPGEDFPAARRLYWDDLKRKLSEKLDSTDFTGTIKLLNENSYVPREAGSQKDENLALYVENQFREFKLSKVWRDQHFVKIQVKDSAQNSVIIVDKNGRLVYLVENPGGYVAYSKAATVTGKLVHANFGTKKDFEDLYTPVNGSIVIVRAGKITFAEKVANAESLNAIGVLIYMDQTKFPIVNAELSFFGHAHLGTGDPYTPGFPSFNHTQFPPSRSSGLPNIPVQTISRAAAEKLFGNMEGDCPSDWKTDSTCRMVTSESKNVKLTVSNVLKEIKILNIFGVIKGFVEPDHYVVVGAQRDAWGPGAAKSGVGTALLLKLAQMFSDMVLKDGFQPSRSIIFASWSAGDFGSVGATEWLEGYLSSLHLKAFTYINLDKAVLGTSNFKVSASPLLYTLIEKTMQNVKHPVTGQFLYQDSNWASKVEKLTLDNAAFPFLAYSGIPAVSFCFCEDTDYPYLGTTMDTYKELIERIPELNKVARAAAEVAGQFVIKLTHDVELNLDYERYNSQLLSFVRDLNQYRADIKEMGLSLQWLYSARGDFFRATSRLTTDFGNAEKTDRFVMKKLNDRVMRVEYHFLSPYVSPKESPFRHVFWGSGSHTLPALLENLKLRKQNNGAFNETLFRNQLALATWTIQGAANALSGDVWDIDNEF

Consider `CC[C@H](C)[C@@H]1NC(=O)[C@H](Cc2ccc(OCC(=O)O)cc2)NC(=O)[C@H](Cc2ccc(O)cc2)NC(=O)[C@H](CC(N)=O)NC(=O)[C@H](Cc2cn(CCO)c3ccccc23)NC(=O)[C@H](C(C)C)NC(=O)[C@H](Cc2cccc(Cl)c2)N(C)C(=O)[C@H]([C@@H](C)O)NC(=O)[C@H](C)NC(=O)CSC[C@@H](C(=O)NCCOCCOCCOCCOCCC(N)=O)NC(=O)[C@H](Cc2ccc(O)cc2)N(C)C(=O)[C@H](Cc2cccc(C(=O)O)c2)NC(=O)[C@H](CCCNC(=N)N)NC(=O)[C@H](CCC(N)=O)NC(=O)[C@H]([C@@H](C)CC)NC1=O` [compound 77] ({CH2CO}-AT[NMePhe(3-Cl)]V[X2]NYY(Carboxymethyl)IIQR[Phe(3-COOH)][NMeY]C[PEG4]-NH2; thioether N-15), for which the “dependency koff pH6.0/7.4” value in test [1] turned out to be 4.46. Regarding `CC[C@H](C)[C@@H]1NC(=O)[C@H](Cc2ccc(OCC(=O)O)cc2)NC(=O)[C@H](Cc2c(F)cc(O)cc2F)NC(=O)[C@H](CC(N)=O)NC(=O)[C@H](Cc2cn(CC(=O)O)c3ccccc23)NC(=O)[C@H](C(C)C)NC(=O)[C@H](Cc2cccc(Cl)c2)N(C)C(=O)[C@H](C(C)C)NC(=O)[C@H](C)NC(=O)CSC[C@@H](C(=O)NCCOCCOCCOCCOCCC(N)=O)NC(=O)[C@H](Cc2ccc(O)cc2)N(C)C(=O)[C@H](Cc2cccc(C(=O)O)c2)NC(=O)[C@H](CCCNC(=N)N)NC(=O)[C@H](CCC(N)=O)NC(=O)[C@H]([C@@H](C)CC)NC1=O` [compound 78] ({CH2CO}-AV[NMePhe(3-Cl)]V[Trp(1-CH2COOH)]N[Tyr(2,6-F2)]Y(Carboxymethyl)IIQR[Phe(3-COOH)][NMeY]C[PEG4]-NH2; thioether N-15), the “dependency koff pH6.0/7.4” value in test [1] is 4.38.

Regarding `CC[C@H](C)[C@@H]1NC(=O)[C@H](Cc2ccc(OCC(=O)O)cc2)NC(=O)[C@H](Cc2ccc(O)cc2)NC(=O)[C@H](CC(N)=O)NC(=O)[C@H](Cc2cn(C)c3ccccc23)NC(=O)[C@H](C(C)C)NC(=O)[C@H](Cc2cccc(Cl)c2)N(C)C(=O)[C@H](C(C)C)NC(=O)[C@H](C)NC(=O)CSC[C@@H](C(=O)NCCOCCOCCOCCOCCC(N)=O)NC(=O)[C@H](Cc2ccc(O)cc2)N(C)C(=O)[C@H](Cc2cccc(C(=O)O)c2)NC(=O)[C@H](CCCNC(=N)N)NC(=O)[C@H](CCC(N)=O)NC(=O)[C@H]([C@@H](C)CC)NC1=O` [compound 79] ({CH2CO}-AV[NMePhe(3-Cl)]V[Trp(1-Me)]NYY(Carboxymethyl)IIQR[Phe(3-COOH)][NMeY]C[PEG4]-NH2; thioether N-15), in test [1], the “dependency koff pH6.0/7.4” value turned out to be 5.31. For `CCC(CC)[C@@H]1NC(=O)[C@H](Cc2ccc(O)cc2)NC(=O)[C@H](Cc2ccc(N)nc2)NC(=O)[C@H](CC(N)=O)NC(=O)[C@H](Cc2c[nH]c3ccccc23)N(C)C(=O)[C@H](C(C)C)NC(=O)[C@H](Cc2ccccc2)N(C)C(=O)[C@H](C(C)C)NC(=O)[C@H](C)NC(=O)CSC[C@@H](C(=O)NCC(=O)N[C@H](CCC(=O)O)C(=O)N[C@H](CCC(=O)O)C(=O)N[C@H](CCC(=O)O)C(=O)N[C@H](CO)C(=O)N[C@H](CO)C(=O)N[C@@H](CCCCN=[N+]=[N-])C(N)=O)NC(=O)[C@H](Cc2ccc(C(=O)O)cc2)N(C)C(=O)[C@H](Cc2ccc(O)cc2)NC(=O)[C@H](CCCNC(=N)N)NC(=O)[C@H](CCCCN)NC(=O)[C@H]([C@@H](C)CC)NC1=O` [compound 188] ({CH2CO}-AV[NMeF]V[NMeW]N[3Pal(6-NH2)]Y[Nva(3-Et)]IKRY[NMePhe(4-COOH)]CG[dE][dE][dE][dS][dS][Lys(N3)]-NH2; thioether N-15), the results for the Kd in test [2] and in test [3] were 0.034 µM and 0.175 µM, respectively. Regarding `CC[C@H](C)[C@@H]1NC(=O)[C@H](Cc2ccc(OC)cc2)NC(=O)[C@H](Cc2ccc(N)nc2)NC(=O)[C@H](CC(N)=O)NC(=O)[C@H](Cc2cnc3ccccn23)NC(=O)[C@H](C(C)C)NC(=O)[C@H](Cc2ccccc2)N(C)C(=O)[C@H](C(C)C)NC(=O)[C@H](C)NC(=O)CSC[C@@H](C(=O)NCC(=O)N[C@@H](CCCCN=[N+]=[N-])C(N)=O)NC(=O)[C@H](Cc2ccc(C(=O)O)cc2)N(C)C(=O)[C@H](Cc2ccncc2)NC(=O)[C@H](CCCNC(=N)N)NC(=O)[C@H](CCCNC(=N)N)NC(=O)[C@H]([C@@H](C)CC)NC1=O` [compound 189] ({CH2CO}-AV[NMeF]V[Ala(imidazo(1,2-a)pyr3yl)]N[3Pal(6-NH2)]Y(Me)IIRR[4Pal][NMePhe(4-COOH)]CG[Lys(N3)]-NH2; thioether N-15), the Kd (usually the free concentration of one partner at which half of the binding sites on the other are occupied at equilibrium, for simple one-to-one binding) stood at 0.0812 µM in test [2] and 0.384 µM in test [3]. On the same counts, the results for `CC[C@H](C)[C@@H]1NC(=O)[C@H](Cc2ccc(OC)cc2)NC(=O)[C@H](Cc2ccc(N)nc2)NC(=O)[C@H](CC(N)=O)NC(=O)[C@H](Cc2cnc3ccccn23)NC(=O)[C@H](C(C)C)NC(=O)[C@H](Cc2ccccc2)N(C)C(=O)[C@H](C(C)C)NC(=O)[C@H](C)NC(=O)CSC[C@@H](C(=O)NCC(=O)N[C@@H](CCCCN=[N+]=[N-])C(N)=O)NC(=O)[C@H](Cc2ccc(O)cc2)N(C)C(=O)[C@H](Cc2ccncc2)NC(=O)[C@H](CCCNC(=N)N)NC(=O)[C@H](CCCNC(=N)N)NC(=O)[C@H]([C@@H](C)CC)NC1=O` [compound 190] ({CH2CO}-AV[NMeF]V[Ala(imidazo(1,2-a)pyr3yl)]N[3Pal(6-NH2)]Y(Me)IIRR[4Pal][NMeY]CG[Lys(N3)]-NH2; thioether N-15) are 0.0571 µM and 0.177 µM. On to `CC[C@H](C)[C@@H]1NC(=O)[C@H](Cc2ccc(OC)cc2)NC(=O)[C@H](Cc2ccc(N)nc2)NC(=O)[C@H](CC(N)=O)NC(=O)[C@H](Cc2c[nH]c3ccccc23)NC(=O)[C@H](C(C)C)NC(=O)[C@H](Cc2cccc(Cl)c2)N(C)C(=O)[C@H](C(C)C)NC(=O)[C@H](C)NC(=O)CSC[C@@H](C(=O)NCC(=O)NCC(=O)NCC(=O)NCC(=O)N[C@@H](CO)C(=O)N[C@@H](CO)C(=O)N[C@@H](CCCCN=[N+]=[N-])C(N)=O)NC(=O)[C@H](Cc2ccc(O)cc2)N(C)C(=O)[C@H](Cc2ccncc2)NC(=O)[C@H](CCCNC(=N)N)NC(=O)[C@H](CCCNC(=N)N)NC(=O)[C@H]([C@@H](C)CC)NC1=O` [compound 191], for which the Kd in test [2] came out at 0.00089 µM; in test [3], 0.00382 µM. On the same counts, the results for `CC[C@H](C)[C@@H]1NC(=O)[C@H](Cc2ccc(OC)cc2)NC(=O)[C@H](Cc2ccc(N)nc2)NC(=O)[C@H](CC(N)=O)NC(=O)[C@H](Cc2c[nH]c3ncccc23)NC(=O)[C@H](C(C)C)NC(=O)[C@H](Cc2cccc(Cl)c2)N(C)C(=O)[C@H](C(C)C)NC(=O)[C@H](C)NC(=O)CSC[C@@H](C(=O)NCC(=O)NCC(=O)NCC(=O)NCC(=O)N[C@@H](CO)C(=O)N[C@@H](CO)C(=O)N[C@@H](CCCCN=[N+]=[N-])C(N)=O)NC(=O)[C@H](Cc2ccc(O)cc2)N(C)C(=O)[C@H](Cc2ccncc2)NC(=O)[C@H](CCCCN2CCOCC2)NC(=O)[C@H](CCCCN2CCOCC2)NC(=O)[C@H]([C@@H](C)CC)NC1=O` [compound 192] are 0.00149 µM and 0.0105 µM.

Turning to `CCC(CC)[C@@H]1NC(=O)[C@H](Cc2ccc(O)cc2)NC(=O)[C@H](Cc2ccc(O)cc2)NC(=O)[C@H](CC(N)=O)NC(=O)[C@H](Cc2c[nH]c3ccccc23)N(C)C(=O)[C@H](C(C)C)NC(=O)[C@H](Cc2ccccc2)N(C)C(=O)[C@H](C(C)C)NC(=O)[C@H](C)NC(=O)CSC[C@@H](C(=O)NCC(=O)N[C@@H](CCCCN=[N+]=[N-])C(N)=O)NC(=O)[C@H](Cc2ccc(C(=O)O)cc2)N(C)C(=O)[C@H](Cc2cccc(C(=O)NCCOCCOCCOCCOCCC(=O)O)c2)NC(=O)[C@H](CCCNC(=N)N)NC(=O)[C@H](CCCCN)NC(=O)[C@H]([C@@H](C)CC)NC1=O` [compound 194] ({CH2CO}-AV[NMeF]V[NMeW]NYY[Nva(3-Et)]IKR[X1](PEG4)[NMePhe(4-COOH)]CG[Lys(N3)]-NH2; thioether N-15), the values for the Kd in test [2] and in test [3] were 0.00462 µM and 0.0149 µM, respectively. On the same counts, the results for `CC[C@H](C)[C@@H]1NC(=O)[C@H](Cc2ccc(O)cc2)NC(=O)[C@H](Cc2ccc(N)nc2)NC(=O)[C@H](CC(N)=O)NC(=O)[C@H](Cc2c[nH]c3ccccc23)N(C)C(=O)[C@H](C(C)C)NC(=O)[C@H](Cc2ccccc2)N(C)C(=O)[C@H](C(C)C)NC(=O)[C@H](C)NC(=O)CSC[C@@H](C(=O)NCC(=O)N[C@@H](CCCCN=[N+]=[N-])C(N)=O)NC(=O)[C@H](Cc2ccc(C(=O)O)cc2)N(C)C(=O)[C@H](Cc2ccc(O)cc2)NC(=O)[C@H](CCCNC(=N)N)NC(=O)[C@H](CCCCN)NC(=O)[C@H]([C@@H](C)CC)NC1=O` [compound 196] ({CH2CO}-AV[NMeF]V[NMeW]N[3Pal(6-NH2)]YIIKRY[NMePhe(4-COOH)]CG[Lys(N3)]-NH2; thioether N-15) are 0.00294 µM and 0.0139 µM. `CC[C@H](C)[C@@H]1NC(=O)[C@H](Cc2ccc(OC)cc2)NC(=O)[C@H](Cc2ccc(N)nc2)NC(=O)[C@H](CC(N)=O)NC(=O)[C@H](Cc2cnc3ccccn23)NC(=O)[C@H](C(C)C)NC(=O)[C@H](Cc2cccc(Cl)c2)N(C)C(=O)[C@H](C(C)C)NC(=O)[C@H](C)NC(=O)CSC[C@@H](C(=O)NCC(=O)N[C@@H](CCCCN=[N+]=[N-])C(N)=O)NC(=O)[C@H](Cc2ccc(O)cc2)N(C)C(=O)[C@H](Cc2ccncc2)NC(=O)[C@H](CCCNC(=N)N)NC(=O)[C@H](CCCNC(=N)N)NC(=O)[C@H]([C@@H](C)CC)NC1=O` [compound 197] ({CH2CO}-AV[NMePhe(3-Cl)]V[Ala(imidazo(1,2-a)pyr3yl)]N[3Pal(6-NH2)]Y(Me)IIRR[4Pal][NMeY]CG[Lys(N3)]-NH2; thioether N-15): the Kd was 0.00509 µM in test [2] and 0.0439 µM in test [3].
